Test results from publication PMC12615753, “Glutathione as a taste modulator: molecular mechanisms of interaction with umami and sweet taste receptors” (Food Chemistry: Molecular Sciences, 2025).
Entries after “also recorded” stand apart in the source; their conditions may differ.

Biological target: T1, hTAS1R1 D192F/rTAS1R3 (UniProt Q7RTX1+Q923K1, D192F)
T1 construct: The cDNA coding region of rTAS1R3 was synthesized with optimized-codon usage for human expression; expressed in transfected cells; host or cells: HEK293T/17
T1 sequence (Q7RTX1 21-841 D192F): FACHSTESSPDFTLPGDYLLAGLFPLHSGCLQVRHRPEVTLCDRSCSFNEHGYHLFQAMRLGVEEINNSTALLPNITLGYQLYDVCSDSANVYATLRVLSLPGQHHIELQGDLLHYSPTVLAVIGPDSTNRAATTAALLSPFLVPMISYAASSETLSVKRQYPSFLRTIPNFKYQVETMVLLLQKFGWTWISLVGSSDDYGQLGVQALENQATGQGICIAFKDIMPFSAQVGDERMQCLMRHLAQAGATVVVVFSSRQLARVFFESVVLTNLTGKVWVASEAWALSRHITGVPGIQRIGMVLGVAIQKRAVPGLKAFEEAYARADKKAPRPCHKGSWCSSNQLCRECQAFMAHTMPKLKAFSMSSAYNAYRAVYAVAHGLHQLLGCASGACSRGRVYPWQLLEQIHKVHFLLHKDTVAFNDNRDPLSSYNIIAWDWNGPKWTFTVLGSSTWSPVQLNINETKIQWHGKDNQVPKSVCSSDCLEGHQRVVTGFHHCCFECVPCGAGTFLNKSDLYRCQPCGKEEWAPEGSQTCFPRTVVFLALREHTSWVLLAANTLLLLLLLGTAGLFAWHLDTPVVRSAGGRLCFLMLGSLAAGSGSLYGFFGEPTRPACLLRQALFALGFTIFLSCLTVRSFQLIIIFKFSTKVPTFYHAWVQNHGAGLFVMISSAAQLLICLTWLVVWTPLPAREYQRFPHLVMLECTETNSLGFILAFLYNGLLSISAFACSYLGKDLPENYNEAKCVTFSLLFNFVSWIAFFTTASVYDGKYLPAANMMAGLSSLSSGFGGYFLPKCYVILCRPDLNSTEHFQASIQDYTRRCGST
T1 sequence (Q923K1 21-858): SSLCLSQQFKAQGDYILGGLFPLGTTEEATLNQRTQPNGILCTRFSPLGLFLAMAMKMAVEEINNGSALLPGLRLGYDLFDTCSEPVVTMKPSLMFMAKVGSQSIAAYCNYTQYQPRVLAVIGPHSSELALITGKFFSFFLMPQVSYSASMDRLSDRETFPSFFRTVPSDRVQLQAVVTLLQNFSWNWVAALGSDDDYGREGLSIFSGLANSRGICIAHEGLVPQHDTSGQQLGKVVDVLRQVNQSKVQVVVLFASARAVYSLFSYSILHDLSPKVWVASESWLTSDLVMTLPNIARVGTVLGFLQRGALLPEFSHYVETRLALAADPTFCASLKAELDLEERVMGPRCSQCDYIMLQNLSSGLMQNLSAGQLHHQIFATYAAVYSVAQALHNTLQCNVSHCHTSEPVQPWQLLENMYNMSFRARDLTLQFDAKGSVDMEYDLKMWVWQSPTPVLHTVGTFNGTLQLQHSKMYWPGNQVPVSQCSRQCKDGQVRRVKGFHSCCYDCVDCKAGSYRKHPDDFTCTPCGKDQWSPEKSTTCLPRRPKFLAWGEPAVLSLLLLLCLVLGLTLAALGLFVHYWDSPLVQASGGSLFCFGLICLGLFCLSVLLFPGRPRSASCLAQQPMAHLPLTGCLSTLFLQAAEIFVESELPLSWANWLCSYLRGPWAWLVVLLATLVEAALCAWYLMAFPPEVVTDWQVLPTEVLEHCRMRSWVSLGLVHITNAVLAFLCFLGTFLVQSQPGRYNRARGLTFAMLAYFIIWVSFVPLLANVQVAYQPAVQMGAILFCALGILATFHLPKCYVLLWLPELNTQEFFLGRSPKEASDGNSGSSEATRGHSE
Assay: Calcium assay, hTAS1R1 mutant co-expressed with rTAS1R3
Assay type: cell-based, human, rat
Details: for response to the agonist alone, vs WT: D192F

| SMILES | EC50 [mM] | response to the agonist alone, vs WT |
| --- | --- | --- |
| N[C@@H](CCC(=O)N[C@@H](CS)C(=O)NCC(=O)O)C(=O)O [GSH, γ-L-glutamyl-L-cysteinyl-glycine] | > 30 | fully abolished; also recorded: completely abolished |
| N[C@@H](CCC(=O)O)C(=O)O [L-Glu, L-glutamic acid, reference compound] |  | completely suppressed; also recorded: completely abolished |
| CCCC(CCC)NC(=O)c1ccc2c(c1)OCO2 [S807, N-(heptan-4-yl)benzo[d][1,3]dioxole-5-carboxamide, reference compound] |  | increased |
